Measurements: patent US7632645B1, “EGF receptor transactivation by G-protein-coupled receptors requires metalloproteinase cleavage of proHB-EGF” (Max-Planck-Gesellschaft zur forderung der Wissenschaften …, priority 1999, dated 2009)

What was measured:
[1] = test system: SHC; experiment: SHC tyrosine phosphorylation in Rat-1/EP-R cells; assay type: cell-based; settings: tyrphostin pretreatment (AG1478 250 nM, AG1295 1 μM), FIG. 1e
[2] = test system: proHB-EGF; experiment: Flow cytometry of cell surface proHB-EGF in non-transfected COS-7 cells; assay type: cell-based; settings: within 10 minutes, FIG. 4c
[3] = test system: EGFR; experiment: EGFR tyrosine phosphorylation in PC-3 prostate carcinoma cells; assay type: cell-based, human; settings: PC-3 cells starved for 36 hours; 3 minutes stimulation; FIG. 4f
[4] = test system: human EGFR (HERc); experiment: Intercellular transactivation: HERc tyrosine phosphorylation in Rat-1/M1R + Rat-1/HERc co-culture; assay type: cell-based; settings: carbachol 1 mM; for effect on EGFR (HERc) tyrosine phosphorylation in response to M1R agonist carbachol: confluent co-cultures of Rat-1/M1R and Rat-1/HERc cells, preincubation, FIG. 2b, 2c
[5] = test system: proHB-EGF; assay type: cell-based

Cc1cc2ncc(-c3ccccc3)nc2cc1C [AG1295]
effect on SHC tyrosine phosphorylation following thrombin stimulation [1]: remained unaffected

COc1cc2ncnc(Nc3cccc(Cl)c3)c2cc1OC [AG1478]
effect on SHC tyrosine phosphorylation following thrombin stimulation [1]: completely blocked

CCCCCCCCCCCCCC(=O)O[C@@H]1[C@@H](C)[C@@]2(O)[C@@H](C=C(CO)C[C@]3(O)C(=O)C(C)=C[C@@H]23)[C@@H]2C(C)(C)[C@]12OC(C)=O [TPA, tetradecanoyl-phorbol-13-acetate]
content of cell surface proHB-EGF after addition of agonist [2]: reduced | induction of tyrosine phosphorylation of the EGFR by agonist [3]: induce tyrosine phosphorylation

C[N+](C)(C)CCOC(N)=O [carbachol]
induction of tyrosine phosphorylation of HERc by agonist ([4]; Rat-1/M1R + Rat-1/HERc co-culture, FIG. 2a): rapidly induced tyrosine phosphorylation | proteolytic processing of membrane-anchored proHB-EGF upon agonist stimulation [5]: rapid breakdown

[O-][Cl+2]([O-])O [chlorate]
effect on EGFR (HERc) tyrosine phosphorylation in response to M1R agonist carbachol [4]: completely inhibited

EGF: epidermal growth factor, EGFR ligand used as control stimulus (NSDSECPLSHDGYCLHDGVCMYIEALDKYACNCVVGYIGERCQYRDLKWWELR; UniProt P01133 971-1023, looked up)
content of cell surface proHB-EGF after addition of agonist [2]: no effect | induction of tyrosine phosphorylation of the EGFR by agonist [3]: induce tyrosine phosphorylation

heparitinase
effect on EGFR (HERc) tyrosine phosphorylation in response to M1R agonist carbachol [4]: completely inhibited

lysophosphatidic acid [LPA]
content of cell surface proHB-EGF after addition of agonist [2]: reduced
